The subject of test [1] is Mus musculus. The test can be described thus: Ratio of survival time of mice treated with VCR (0.25 mg/kg ip)+modulator given at the optimal dose of 100 mg/kg po/survival time of mice treated with VCR alone. The format is functional.
Test [2] relates to Mus musculus. Nature of the test: Ratio of survival time of mice treated with VCR (0.25 mg/kg ip)+modulator given at the optimal dose of 50 mg/kg po/survival time of mice treated with VCR alone. The format is functional.
Test [3] concerns Mus musculus. Nature of the test: Ratio of survival time of mice treated with VCR (0.25 mg/kg ip)+modulator given at the optimal dose of 100 mg/kg po/survival time of mice treated with VCR alone. Type of test: functional.
Test [4] has as its system Mus musculus. Nature of the test: Ratio of survival time of mice treated with VCR (0.25 mg/kg ip)+modulator given at the optimal dose of 200 mg/kg po/survival time of mice treated with VCR alone. Type of test: functional.

36 compounds from ChEMBL document CHEMBL1129437, “New purines and purine analogs as modulators of multidrug resistance” (J Med Chem, 1996) can be followed below.

Description for KB: Percent of cell viability of KB-A1 human epidermoid carcinoma remaining after inoculation with the modulator alone
Description for P388: Percent of cell viability of P388/VCR-20 murine leukemia cells remaining after inoculation with the modulator alone

As to `C=CCNc1nc(N2CCC(NCC(c3ccc(F)cc3)c3ccc(F)cc3)CC2)nc2c1ncn2CC=C`, the T/V in the test on Mus musculus [1] is reported as 1.49. In addition, the Viability in the test on KB is 120%; in the test with P388, 95%.

Take `C=CCNc1nc(N2CCC(NCC3c4ccccc4CCc4cc(OC)ccc43)CC2)nc2c1ncn2CC=C` (stereo unspecified): the T/V with Mus musculus [1] stood at 1.54. The Viability in the test on KB worked out at 108%; in the test on P388 it was 114%.

For the compound `C=CCNc1nc(N2CCN(C(c3ccc(F)cc3)c3ccc(F)cc3)CC2)nc2ncn(CC=C)c12`, the figures for the Viability in the test with KB and in the test with P388 were 104% and 97%, respectively.

As to `C=CCNc1nc(N2CCC(NCC3c4ccccc4CCc4cc(OC)c(OC)c(OC)c43)CC2)nc2c1ncn2CC=C` (stereo unspecified), the T/V with Mus musculus [1] is on record as 1.16. In addition, the Viability was 86% with KB and 96% in the test with P388.

For the compound `CCCNc1nc(N2CCC(NCC3c4ccccc4CCc4ccccc43)CC2)nc2c1ncn2CCC`, the T/V in the test with Mus musculus [1] was found to be 1.57. For the same compound, the Viability came to 127% in the test with KB and 98% in the test on P388.

As to `C=CCNc1nc(N2CCC(NCC3c4ccccc4COc4ccccc43)CC2)c2ncn(CC=C)c2n1` (stereo unspecified), the Viability in the test with KB worked out at 110%; with P388, 91%.

On to `C=CCNc1nc(N2CCC(NCC3c4ccccc4CCc4ccccc43)CC2)c2ncn(CC=C)c2n1`, for which the T/V in the test on Mus musculus [1] turned out to be 1.19. Besides, the results for the Viability in the test on KB and in the test with P388 were 95% and 112%, respectively.

As to `C=CCn1ncc2c(NCCC)nc(N3CCC(NCC4c5ccccc5CCc5cc(OC)ccc54)CC3)nc21` (stereo unspecified), the T/V in the test with Mus musculus [1] is 1.3. The Viability amounted to 86% in the test with KB and 98% with P388.

Regarding `C=CCNc1nc(N2CCC(NC3c4ccccc4N(C)S(=O)(=O)c4cc(Cl)ccc43)CC2)nc2c1ncn2CC=C` (stereo in doubt; 12), the T/V with Mus musculus [1] (100 mg/kg) was found to be 1.11. Further, the results for the Viability in the test with KB and in the test on P388 were 64% and 135%, respectively.

`C=CCNc1nc(N2CCC(NCc3cccc4ccccc34)CC2)nc2c1ncn2CC=C`: the T/V with Mus musculus [1] is reported as 1.33. For the same compound, the results for the Viability in the test with KB and with P388 were 110% and 80%, respectively.

Take `C=CCNc1nc(N2CCC(NCC3c4ccccc4CCc4cc(OC)ccc43)CC2)c2ncn(CC=C)c2n1` (stereo unspecified): the T/V in the test with Mus musculus [1] was 1.06. Moreover, the values for the Viability in the test on KB and in the test with P388 were 91% and 131%, respectively.

Regarding `C=CCNc1nc(N2CCC(NC3c4ccccc4CCc4ccccc43)CC2)c2ncn(CC=C)c2n1`, the values for the Viability in the test with KB and in the test with P388 were 119% and 120%, respectively.

In the case of `C=CCNc1nc(N2CCC(NCC3c4ccccc4C=Cc4ccccc43)CC2)nc2c1ncn2CC=C`, the T/V in the test with Mus musculus [2] is 1.21. Also, the Viability is given as 110% with KB and 111% in the test with P388.

Take `C=CCn1cnc2c(NCCC)nc(N3CCC(NCC4c5ccccc5CCc5ccccc54)CC3)nc21`: the T/V in the test with Mus musculus [2] was 1.38. Further, the Viability in the test on KB is given as 112%; with P388 it was 103%.

As for `C=CCNc1nc(N2CCC(NC3c4ccccc4CCc4ccccc43)CC2)nc2c1ncn2CC=C`, the Viability in the test with KB and in the test with P388 was 111% in each case.

With `C=CCNc1nc(N2CCN(C(c3ccc(F)cc3)c3ccc(F)cc3)CC2)c2ncn(CC=C)c2n1`, the values for the Viability with KB and with P388 were 73% and 98%, respectively.

`C=CCNc1nc(N2CCC(NCC3c4ccccc4N(C)S(=O)(=O)c4cc(Cl)ccc43)CC2)c2ncn(CC=C)c2n1` (stereo unspecified): in the test on Mus musculus [3], the T/V was 1.03. Also, the Viability in the test with KB was 141%; with P388, 89%.

With `C=CCNc1nc(N2CCC(NCC(c3ccc(F)cc3)c3ccc(F)cc3)CC2)c2ncn(CC=C)c2n1`, the values for the Viability in the test on KB and in the test on P388 were 106% and 108%, respectively.

`C=CCNc1nc(N2CCC(NCC3c4ccccc4COc4ccccc43)CC2)nc2c1ncn2CC=C` (stereo unspecified): the T/V with Mus musculus [1] is 1.36. The results for the Viability in the test on KB and in the test on P388 were 108% and 95%, respectively.

With `C=CCNc1nc(N2CCC(NCC(c3ccccc3)(c3ccccc3)c3ccccc3)CC2)nc2c1ncn2CC=C`, in the test on Mus musculus [1], the T/V was 1.3. Moreover, the Viability in the test on KB is 127%; in the test on P388, 119%.

Consider `C=CCNc1nc(NCC=C)nc(N2CCC(NCC(c3ccc(F)cc3)c3ccc(F)cc3)CC2)n1`, for which, in the test with Mus musculus [4], the T/V turned out to be 1.19. The Viability turned out to be 111% in the test with KB and 93% with P388.

Take `C=CCNc1nc(N2CCC(NCC3c4ccccc4C=Cc4ccccc43)CC2)c2ncn(CC=C)c2n1`: in the test on Mus musculus [1], the T/V is 1.17. For the same compound, the Viability was 102% with KB and 119% in the test on P388.

On to `C=CCNc1nc(N2CCC(NCC3c4ccccc4N(CCC)S(=O)(=O)c4ccccc43)CC2)nc2c1ncn2CC=C` (stereo unspecified), for which the T/V in the test with Mus musculus [1] amounted to 1.21. For the same compound, the Viability in the test on KB was found to be 145%; in the test with P388, 96%.

On to `C=CCNc1nc(N2CCC(NCc3cccc4ccccc34)CC2)c2ncn(CC=C)c2n1`, for which, in the test with Mus musculus [1], the T/V amounted to 1.31. Moreover, the Viability in the test with KB was found to be 106%; in the test on P388, 104%.

With `C=CCNc1nc(N2CCN(C(c3ccc(F)cc3)c3ccc(F)cc3)CC2)nc2c1ncn2CC=C`, the Viability is listed as 103% in the test with KB and 99% with P388.

Turning to `C=CCNc1nc(N2CCC(NCC3c4ccccc4CCc4ccccc43)CC2)nc2c1cnn2CC=C`, the T/V in the test with Mus musculus [1] stood at 1.31. Moreover, the Viability in the test on KB is recorded as 132%; in the test with P388, 74%.

Consider `C=CCNc1nc(N2CCC(NCC3c4ccccc4CCc4ccccc43)CC2)nc2c1nnn2CC=C`, for which the T/V with Mus musculus [1] was 1.17. Also, the Viability with KB is 84%; in the test with P388 it was 83%.

For the compound `C=CCNc1nc(N2CCC(NCC3Cc4ccccc4Cc4ccccc43)CC2)nc2c1ncn2CC=C` (stereo unspecified), in the test on Mus musculus [1], the T/V worked out at 1.42. The Viability is recorded as 104% in the test on KB and 98% in the test on P388.

Regarding `C=CCNc1nc(N2CCC(NCC3c4ccccc4CCc4ccccc43)CC2)nc2c1ncn2CCC`, the T/V with Mus musculus [1] was 1.31. Also, the Viability in the test with KB was found to be 107%; with P388, 102%.

For the compound `C=CCNc1nc(N2CCC(NCC(c3ccccc3)c3ccccc3)CC2)nc2c1ncn2CC=C`, the T/V in the test with Mus musculus [1] is 1.3. Besides, the Viability worked out at 115% in the test on KB and 93% with P388.

For the compound `C=CCNc1nc(N2CCC(NCC3CCCCc4ccccc43)CC2)nc2c1ncn2CC=C` (stereo unspecified), the T/V in the test on Mus musculus [2] is on record as 1.2. The Viability is listed as 122% in the test on KB and 123% in the test with P388.

On to `C=CCNc1nc(N2CCC(NC3c4ccccc4N(C)S(=O)(=O)c4cc(Cl)ccc43)CC2)nc2c1ncn2CC=C` (stereo in doubt; 11), for which the T/V with Mus musculus [1] (100 mg/kg) turned out to be 1.27. Besides, the Viability in the test with KB is listed as 60%; in the test with P388, 146%.

For the compound `C=CCNc1nc(N2CCC(NCC3c4ccccc4CCc4cc(OC)ccc43)CC2)nc2c1cnn2CC=C` (stereo unspecified), the T/V with Mus musculus [1] turned out to be 1.18. Also, the figures for the Viability in the test with KB and with P388 were 103% and 90%, respectively.

Consider `C=CCNc1nc(N2CCC(NCC3c4ccccc4CCc4ccccc43)CC2)nc2c1ccn2CC=C`, for which the T/V in the test on Mus musculus [1] was found to be 1.24. Also, the figures for the Viability in the test with KB and with P388 were 86% and 126%, respectively.

Regarding `C=CCNc1nc(N2CCC(NCC3c4ccccc4N(C)S(=O)(=O)c4cc(Cl)ccc43)CC2)nc2c1ncn2CC=C` (stereo unspecified), the T/V in the test with Mus musculus [1] came out at 1.13. Further, the Viability came out at 121% in the test with KB and 70% with P388.

With `C=CCNc1nc(N2CCC(NCC3c4ccccc4NC(=O)c4ccccc43)CC2)nc2c1ncn2CC=C` (stereo unspecified), the T/V in the test with Mus musculus [1] stood at 1.13. Moreover, the figures for the Viability with KB and with P388 were 126% and 106%, respectively.
